Laboratory results taken from patent US10167262B2, “Herbicidal substituted 3-arylpyrazoles” (FMC CORPORATION, priority 2014, dated 2019).

Key:
Assay in all cases: Test E pre-/postemergence greenhouse test, plant response rating 0-100
Format in all cases: in vivo
[1] = tested on: field bindweed (Convolvulus arvensis); settings: Postemergence, scale 0 to 100
Procedure, shortened: (§1)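 Visual control score, 0–100 relative to untreated plants, recorded 14–21 days after spraying. Treatments: preemergence on silt loam seedbeds and postemergence at the 1- to 4-leaf stage, with compound in surfactant-containing solvent.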

[2] = tested on: soybean (Glycine max); settings: Postemergence, scale 0 to 100
Procedure, shortened: as §1

[3] = tested on: waterhemp (common waterhemp, Amaranthus rudis); settings: Postemergence, scale 0 to 100; for pest or weed control at 31 g/ha / pest or weed control at 62 g/ha / pest or weed control at 125 g/ha / pest or weed control at 250 g/ha: Amaranthus tuberculatus, post-emergence
Procedure, shortened: as §1

[4] = Convolvulus arvensis, post-emergence, 31 g ai/ha
[5] = Convolvulus arvensis, post-emergence, 62 g ai/ha
[6] = Convolvulus arvensis, post-emergence, 125 g ai/ha
[7] = Convolvulus arvensis, post-emergence, 250 g ai/ha
[8] = Glycine max, post-emergence, 31 g ai/ha
[9] = Glycine max, post-emergence, 62 g ai/ha
[10] = Glycine max, post-emergence, 125 g ai/ha
[11] = Glycine max, post-emergence, 250 g ai/ha

Structure (SMILES) | pest or weed control at 31 g/ha [1, 4] [%] | pest or weed control at 62 g/ha [1, 5] [%] | pest or weed control at 125 g/ha [1, 6] [%] | pest or weed control at 250 g/ha [1, 7] [%] | plant injury at 31 g/ha [2, 8] [%] | plant injury at 62 g/ha [2, 9] [%] | plant injury at 125 g/ha [2, 10] [%] | plant injury at 250 g/ha [2, 11] [%] | pest or weed control at 31 g/ha ([3]; 31 g ai/ha) [%] | pest or weed control at 62 g/ha ([3]; 62 g ai/ha) [%] | pest or weed control at 125 g/ha ([3]; 125 g ai/ha) [%] | pest or weed control at 250 g/ha ([3]; 250 g ai/ha) [%] | Plant response rating, Field Bindweed ([1]; 31 g ai/ha) | Plant response rating, Field Bindweed ([1]; 62 g ai/ha) | Plant response rating, Field Bindweed ([1]; 125 g ai/ha) | Plant response rating, Field Bindweed ([1]; 250 g ai/ha) | Plant response rating, Field Bindweed ([1]; 500 g ai/ha) | Plant response rating, Soybean ([2]; 31 g ai/ha) | Plant response rating, Soybean ([2]; 62 g ai/ha) | Plant response rating, Soybean ([2]; 125 g ai/ha) | further results
Clc1cc(Cl)cc(-c2n[nH]cc2C(=NN2CCCC2)c2ccccc2)c1 [Compound 30, N-[[3-(3,5-dichlorophenyl)-1H-pyrazol-4-yl]phenylmethylene]-1-pyrrolidinamine] | 0 | 0 | 0 | 0 | 0 | 0 | 0 | 0 | 60 | 70 | 70 | 75 |  |  |  |  |  |  |  |  | pest or weed control at 16 g/ha ([1]; Convolvulus arvensis, post-emergence, 16 g ai/ha): 0%
Fc1ccc(NN=C(c2ccccc2)c2c[nH]nc2-c2cc(Cl)cc(Cl)c2)cc1 [Compound 35] |  |  |  |  |  |  |  |  |  |  |  |  | 0 | 0 | 0 | 0 | 15 | 0 | 0 | 0 | Plant response rating, Soybean ([2]; 250 g ai/ha): 0; Plant response rating, Soybean ([2]; 500 g ai/ha): 0; Plant response rating, Waterhemp ([3]; 62 g ai/ha): 85; Plant response rating, Waterhemp ([3]; 125 g ai/ha): 95; Plant response rating, Waterhemp ([3]; 250 g ai/ha): 98; Plant response rating, Waterhemp ([3]; 500 g ai/ha): 100
ON=C(c1ccccc1)c1c[nH]nc1-c1cc(Cl)cc(Cl)c1 [Compound 50] |  |  |  |  |  |  |  |  |  |  |  |  | 0 | 0 | 0 | 0 | 5 | 0 | 0 | 0 | Plant response rating, Soybean ([2]; 250 g ai/ha): 0; Plant response rating, Soybean ([2]; 500 g ai/ha): 0; Plant response rating, Waterhemp ([3]; 31 g ai/ha): 80; Plant response rating, Waterhemp ([3]; 125 g ai/ha): 90; Plant response rating, Waterhemp ([3]; 250 g ai/ha): 100; Plant response rating, Waterhemp ([3]; 500 g ai/ha): 100
CCCn1cc(C(=O)c2ccccc2)c(-c2cc(Cl)cc(Cl)c2)n1 [Compound 61, [3-(3,5-dichlorophenyl)-1-propyl-1H-pyrazol-4-yl]phenylmethanone] | 0 | 0 | 0 | 0 | 0 | 0 | 0 | 0 | 20 | 30 | 75 | 100 |  |  |  |  |  |  |  |  | pest or weed control at 500 g/ha ([1]; Convolvulus arvensis, post-emergence, 500 g ai/ha): 5%; plant injury at 500 g/ha ([2]; Glycine max, post-emergence, 500 g ai/ha): 10%
